In US12545649B2, “WDR5-MYC inhibitors” (Vanderbilt University, priority 2019, dated 2026):
pKi: −log10 of the molar value.

Legend:
WDR5 [1] = biological target: T1, WDR5 (Homo sapiens, UniProt P61964); experiment: Competition-based fluorescence polarization anisotropy (FPA) assay; assay type: binding; conditions: FITC small molecule probe
Description: (Thomas, […], et al, Molecular Cell 2015 (58): 440-452). Fluorescence polarization measurements were performed in 384-well plates (Greiner Bio One) using a Cytation 3 plate reader (BioTek). […] […] The assay buffer contained 200 mM phosphate, 300 mM NaCl, and 0.5 mM TCEP and 0.1% Chaps at pH 6.0. Compounds were serially diluted in assay buffer at a top concentration sufficient to yield a 9-point dose-response curve.

MYC = experiment: ChIP: disruption of binding of MYC to chromatin; assay type: cell-based; conditions: HEK293 cells expressing HA-tagged MYC, 20 μM, 10 h
Description: (§1) HEK293 cells expressing HA-tagged MYC and GFP were plated in growth media. Upon reaching approximately 70% confluence, cells were washed once with PBS then treated for 10 h with 20 μM compound in OptiMEM media. Cells were cross linked at room temperature in PBS containing 1% Formaldehyde for 10 minutes, then cells were scraped into 1.5 mL PBS supplemented with 125 mM Glycine. Cells were collected by centrifugation, washed once with PBS+125 mM Glycine, and pellets stored frozen. Chromatin was prepared by lysing cells at 80×10^6 per mL in ChIP Lysis Buffer (50 mM Tris pH 8.0, 140 mM NaCl, 1 mM EDTA, 1% Triton, 1% SDS and supplemented with protease inhibitor cocktail), Samples were sonicated (BioRuptor) for 30 minutes and cleared by centrifugation. Precipitation was performed essentially as described [Thomas L R 2015 Mol Cell] by diluting chromatin 1:9 in ChIP buffer without SDS. Decrosslinked DNA was diluted to 500 μL with water and 7.5 μL was used for each qPCR reaction. Percent input was calculated by comparison to a 30-fold dilution of decrosslinked chromatin. Primers used for ChIP have been described in Thomas, L. R.; Adams, C. M.; Wang, J.; Weissmiller, A. M.; Creighton, J.; Lorey, S. L.; Liu, Q.; Fesik, S. W.; Eischen, C. M.; Tansey, W. P. Interaction of the Oncoprotein Transcription Factor MYC with its Chromatin Cofactor WDR5 is Essential for Tumor Maintenance. […]

WDR5 [2] = biological target: T1, WDR5; experiment: ChIP for WDR5 binding to chromatin; assay type: cell-based; conditions: HEK293 cells, 20 μM, 10 h
Description: as §1

| pKi (WDR5 [1]) | SMILES | also measured |
| --- | --- | --- |
| 5.41 | O=S(=O)(Nc1nc2ccc(OC(F)(F)F)cc2s1)c1cc(Br)cc(Cl)c1O [Example 40, 5-Bromo-3-chloro-2-hydroxy-N-(6-(trifluoromethoxy)benzo[d]thiazol-2-yl)benzenesulfonamide] | – |
| 6.92 | O=S(=O)(Nc1nc2ccccc2s1)c1cc(Br)cc(Cl)c1O [Example 37, N-(Benzo[d]thiazol-2-yl)-5-bromo-3-chloro-2-hydroxybenzenesulfonamide] | – |
| 6.01 | O=S(=O)(Nc1cn(C(C2CC2)C2CC2)cn1)c1cc(Br)cc(Cl)c1O [Example 18, 5-Bromo-3-chloro-N-(1-(dicyclopropylmethyl)-1-imidazol-4-yl)-2-hydroxybenzenesulfonamide] | – |
| 5.39 | O=S(=O)(Nc1cn(CC2CCCO2)cn1)c1cc(Br)cc(Cl)c1O (centres unmarked) [Example 15, 5-Bromo-3-chloro-2-hydroxy-N-(1-((tetrahydrofuran-2-yl)methyl)-1H-imidazol-4-yl)benzenesulfonamide] | – |
| 5.96 | O=S(=O)(Nc1cc(-c2ccccc2)[nH]n1)c1cc(Br)cc(Cl)c1O [Example 35, 5-Bromo-3-chloro-2-hydroxy-N-(5-phenyl-1H-pyrazol-3-yl)benzenesulfonamide] | – |
| 6.80 | O=S(=O)(Nc1cn(C2CCCC2)cn1)c1cc(Br)cc(Cl)c1O [Example 1, 5-Bromo-3-chloro-N-(1-cyclopentyl-1H-imidazol-4-yl)-2-hydroxybenzenesulfonamide] | – |
| 6.18 | Cc1nc(NS(=O)(=O)c2cc(Br)cc(Cl)c2O)cn1C1CCC1 [Example 17, 5-Bromo-3-chloro-N-(1-cyclobutyl-2-methyl-1-imidazol-4-yl)-2-hydroxybenzenesulfonamide] | – |
| – | CS(=O)(=O)c1nc(NS(=O)(=O)c2cc(Br)cc(Cl)c2O)cn1C1CCCC1 [Example 26, 5-Bromo-3-chloro-N-(1-cyclopentyl-2-(methylsulfonyl)-1H-imidazol-4-yl)-2-hydroxybenzenesulfonamide] | amount of MYC at ZFPM1 and ZMF771 (MYC binding independent of WDR5) (MYC): nearly unaffected; amount of MYC at loci where MYC recruitment is dependent on WDR5 (C7orf40, RNPS1, RPS14, and RPL5) (MYC): reduction; WDR5 levels at these loci (ChIP for WDR5) versus negative control compound (WDR5 [2]): comparable levels |
| 4.99 | O=S(=O)(Nc1cn(C2CCNC2)cn1)c1cc(Br)cc(Cl)c1O (centres unmarked) [Example 31, 5-Bromo-3-chloro-2-hydroxy-N-(1-(pyrrolidin-3-yl)-1H-imidazol-4-yl)benzenesulfonamide] | – |
| 6.00 | O=C(c1nc(NS(=O)(=O)c2cc(Br)cc(Cl)c2O)cn1C1CCCC1)N1CCC(C2CCNC2)CC1 (centres unmarked) [Example 54, 5-Bromo-3-chloro-N-(1-cyclopentyl-2-(4-(pyrrolidin-3-yl)piperidine-1-carbonyl)-1H-imidazol-4-yl)-2-hydroxybenzenesulfonamide] | – |
| 4.72 | O=S(=O)(Nc1cn(CC2CCCO2)cn1)c1cc(Br)ccc1O (centres unmarked) [Example 16, 5-Bromo-2-hydroxy-N-(1-((tetrahydrofuran-2-yl)methyl)-1H-imidazol-4-yl)benzenesulfonamide] | – |
| 6.09 | O=S(=O)(Nc1cn(CC2CC2)cn1)c1cc(Br)cc(Cl)c1O [Example 5, 5-Bromo-3-chloro-N-(1-(cyclopropylmethyl)-1H-imidazol-4-yl)-2-hydroxybenzenesulfonamide] | – |
